Laboratory results: patent publication US20260191841A1, “TREATMENT OF CHRONIC KIDNEY DISEASE IN TYPE I DIABETES MELLITUS” (BAYER AKTIENGESELLSCHAFT, priority 2022, published 2026)

Tests used:
[1] = patients with CKD and T1D; vs placebo; cited from earlier work
[2] = FIDELITY UACR mixed model, restricted to patients with UACR>=200 mg/g and eGFR between 25 and 90 ml/min/1.73 m^2; format: in vivo, human; details: FIDELITY restricted population
Procedure: UACR will be analyzed assuming a lognormal distribution. Assumptions for the UACR ratios to baseline at 6 months are based on the FIDELITY UACR mixed model restricted to patients with UACR>=200 mg/g and eGFR between 25 and 90 ml/min/1.73 m^2.
In the FIDELITY restricted population, the UACR ratio to baseline after 4 months was 0.61 and 0.53 after 12 months in the finerenone group. The value, using interpolation, at 6 months was estimated to be 0.59. As a conservative approach, we will assume the treatment ratio (finerenone/placebo) over 6 months to be 0.7 (i.e., the difference in UACR ratio to baseline between finerenone and placebo to be 30%). The standard deviation was calculated to range from 0.75 and 1.0 between month 4 and 12. Using linear interpolation, at month 6 it was assumed to be approximately 0.8.

[3] = patients with T2D; coadministered with an ACEI or an ARB; cited from earlier work

Row | Compound | albuminuria [1] | rate of kidney function decline [1] | UACR ratio to baseline ([2]; after 4 months, finerenone group) | UACR ratio to baseline ([2]; after 12 months, finerenone group) | UACR ratio to baseline ([2]; at 6 months, estimated using interpolation) | cardiovascular morbidity [3] | progression of diabetic kidney disease [3]
1 | Oc1ncnc2[nH]ncc12 [allopurinol] | did not reduce albuminuria | nor delay the rate of kidney function decline |  |  |  |  | 
2 | CCOc1ncc(C)c2c1[C@H](c1ccc(C#N)cc1OC)C(C(N)=O)=C(C)N2 [finerenone, (4S)-4-(4-cyano-2-methoxyphenyl)-5-ethoxy-2,8-dimethyl-1,4-dihydro-1,6-naphthyridine-3-carboxamide] |  |  | 0.61 | 0.53 | 0.59 | reduces cardiovascular morbidity | delays the progression of diabetic kidney disease
